Consider two molecules from US4981847A, “Tricyclic compounds” (Fujisawa Pharmaceutical Co., Ltd., priority 1988, dated 1991).

Experiment [1] deals with T1, rat pancreatic CCK receptors (Rattus norvegicus, UniProt P30551).
T1 construct: rat pancreatic CCK receptors; from tissue; host or cells: rat pancreas
T1 sequence (P30551 1-444): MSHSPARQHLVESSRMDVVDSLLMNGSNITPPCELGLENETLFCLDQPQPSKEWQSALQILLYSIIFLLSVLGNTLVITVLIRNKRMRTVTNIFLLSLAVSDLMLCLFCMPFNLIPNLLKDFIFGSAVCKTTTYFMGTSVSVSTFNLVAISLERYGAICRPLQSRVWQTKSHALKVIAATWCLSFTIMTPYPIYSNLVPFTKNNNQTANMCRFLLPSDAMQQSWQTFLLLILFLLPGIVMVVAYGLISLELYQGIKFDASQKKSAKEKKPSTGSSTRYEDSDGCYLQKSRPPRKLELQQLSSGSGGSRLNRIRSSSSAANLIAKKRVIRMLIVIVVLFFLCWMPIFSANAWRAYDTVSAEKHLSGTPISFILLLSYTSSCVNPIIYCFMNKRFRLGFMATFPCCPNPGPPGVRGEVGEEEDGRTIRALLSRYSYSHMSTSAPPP
The experiment can be described thus: Inhibition of binding of [125I] CCK-8 to rat pancreatic CCK receptors. The source says:
(B) Inhibition of binding of [^125 I] CCK-8 to rat pancreatic CCK receptors by test compound B (CCK antagonism).

In experiment [2] the test system is caerulein-induced pancreatitis. The experiment in a line: Inhibitory effect on caerulein-induced pancreatitis in mice. The class given is in vivo. The settings on record: Mus musculus. The source says:
(D) Inhibitory effect of test compound B on caerulein-induced pancreatitis in mice.

For experiment [3], the target named is T2, guinea pig cerebral cortical CCK receptors (Cavia porcellus, UniProt H0VZC5).
T2 construct: guinea pig cerebral cortical CCK receptors; from tissue; host or cells: guinea pig cerebral cortex
The experiment in a line: Inhibition of binding of [125I] CCK-8 to guinea pig cerebral cortical CCK receptors. The source says: (C) Inhibition of binding of [^125 I] CCK-8 to guinea pig cerebral cortical CCK receptors by test compound B (CCK antagonism).

The test system of experiment [4] is CCK-8-induced inhibition of gastric emptying. The experiment in a line: Effect upon CCK-8-induced inhibition of gastric emptying in mice (CCK antagonism). The settings on record: Mus musculus. The format is in vivo. The source says:
Effect of test compound B upon CCK-8-induced inhibition of gastric emptying in mice (CCK antagonism).

The subject of experiment [5] is CCK receptor. The experiment in a line: CCK receptor antagonism in isolated fundic circular muscle from guinea pig stomach. The format is cell-based. The settings on record: test compound 1×10^-6 M, CCK-8 3.2×10^-7 M, 37° C. The method, then:
(A) CCK receptor antagonism in isolated fundic circular muscle from guinea pig stomach
The strip of circular muscle suspended in 25 ml organ bath containing Krebs' bicarbonate solution (NaCl 118 mM, KCl 4.8 mM, KH2 PO4 1.2 mM, MgSO4 1.2 mM, CaCl2 2.5 mM, NaHCO3 25 mM, glucose 11 mM and bovine serum albumin 0.1%) maintained at 37° C. and gassed with 95% O2 and 5% CO2.
The strip was placed under an initial tension of 0.5 g and equilibrated for 60 minutes during which the bath volume was replaced every 15 minutes. Isometric contraction was measured using a force transducer. CCK-8 (3.2×10^-7 M) was added to the bathing solution and the contractile force was measured After washing out CCK-8, test compound A (1×10^-6 M) was added. 5 minutes later, CCK-8 was added and the contractile force was measured. CCK antagonism was calculated by comparing the contractile force induced by CCK in the absence or presence of test compound A.

T2 sequence (H0VZC5 entry or part of it): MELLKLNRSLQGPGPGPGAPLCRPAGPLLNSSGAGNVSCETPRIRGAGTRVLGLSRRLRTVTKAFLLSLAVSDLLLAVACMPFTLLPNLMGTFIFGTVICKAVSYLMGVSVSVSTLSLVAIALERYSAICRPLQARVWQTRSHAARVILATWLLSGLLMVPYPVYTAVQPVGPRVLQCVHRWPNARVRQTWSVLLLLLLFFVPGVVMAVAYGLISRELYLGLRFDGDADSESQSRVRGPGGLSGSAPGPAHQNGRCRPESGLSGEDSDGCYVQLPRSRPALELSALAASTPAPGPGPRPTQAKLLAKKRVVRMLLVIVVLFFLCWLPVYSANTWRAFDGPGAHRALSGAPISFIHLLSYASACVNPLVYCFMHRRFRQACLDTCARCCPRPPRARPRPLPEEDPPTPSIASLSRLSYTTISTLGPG

`O=C(N[C@H]1N=C(c2ccccc2F)c2cccc3c2N(CC3)C1=O)c1cc2ccccc2[nH]1` [test compound B, (3S)-1-(2-Fluorophenyl)-3,4,6,7,-tetrahydro-3-(2-indolylcarbonylamino)-4-oxopyrrolo[3,2,1-jk][1,4]-benzodiazepine]: the results for the IC50 in experiment [1] and in experiment [3] were 0.00067 µM and 0.031 µM, respectively. Also, the median effective dose (ED50) in experiment [2] came out at 0.022 mg/kg; in experiment [4] it was 0.01 mg/kg.
For the molecule `O=C(NC1N=C(c2ccccc2F)c2cccc3c2N(CC3)C1=O)c1cc2ccccc2[nH]1` (racemic) [test compound A, (3RS)-1-(2-Fluorophenyl)-3,4,6,7-tetrahydro-3-(2-indolylcarbonylamino)-4-oxopyrrolo[3,2,1-jk][1,4]benzodiazepine], the “Inhibition (%) of CCK-8-induced contraction” value in experiment [5] turned out to be 90.4%.

A word on the IC50: it is the concentration needed to halve the response being measured. The low end stands for inhibition by little substance, the high end for a need for much substance. For orientation: ED50 means the dose at which the effect has come halfway, by size or by number of responders.
